Assay results published in ChEMBL document CHEMBL3885881, “DrugMatrix”.

Species on record: Rattus norvegicus
Test: DrugMatrix - Regimen: Daily Repeat
Assay type: toxicity, organism-based, Sprague-Dawley
Design: regimen Daily Repeat, gender Male, age 6-8 weeks
Conditions: in vivo, po, route oral GAVAGE, […]; for ABSOLUTE BASOPHIL / ABSOLUTE EOSINOPHIL / ABSOLUTE LYMPHOCYTE / ABSOLUTE MONOCYTE / ABSOLUTE SEGMENTED NEUTROPHIL / BASOPHIL / EOSINOPHIL / ERYTHROCYTE COUNT / HEMATOCRIT / HEMOGLOBIN / LEUKOCYTE COUNT / LYMPHOCYTE / MEAN CORPUSCULAR HEMOGLOBIN / MEAN CORPUSCULAR HEMOGLOBIN CONCENTRATION / MEAN CORPUSCULAR VOLUME / MONOCYTE / NEUTROPHIL / NUCLEATED RED BLOOD CELLS / PLATELET COUNT: tissue Blood; for ALANINE AMINOTRANSFERASE / ALBUMIN / ALKALINE PHOSPHATASE / ASPARTATE AMINOTRANSFERASE / BLOOD UREA NITROGEN / CARBON DIOXIDE / CHLORIDE / CHOLESTEROL / CREATINE PHOSPHOKINASE / CREATININE / GLUCOSE / LACTATE DEHYDROGENASE / LIPASE / PHOSPHORUS / POTASSIUM / SODIUM / TOTAL BILIRUBIN / TOTAL PROTEIN / URIC ACID: tissue Plasma
[1] = 0 mg/kg, 72 h, dose level Control, time 3 day
[2] = 0 mg/kg, 120 h, dose level Control, time 5 day
[3] = 3 mg/kg, 72 h, dose level Low, time 3 day

CC#C[C@]1(O)CC[C@H]2[C@@H]3CCC4=CC(=O)CCC4=C3[C@@H](c3ccc(N(C)C)cc3)C[C@@]21C [MIFEPRISTONE]
ABSOLUTE BASOPHIL [1]: 0 CELLS/uL | ABSOLUTE EOSINOPHIL [1]: 14 CELLS/uL | ABSOLUTE LYMPHOCYTE [1]: 11144.67 CELLS/uL | ABSOLUTE MONOCYTE [1]: 22.5 CELLS/uL | ABSOLUTE SEGMENTED NEUTROPHIL [1]: 535.5 CELLS/uL | BASOPHIL [1]: 0% | EOSINOPHIL [1]: 0.17% | ERYTHROCYTE COUNT [1]: 5.08 x10E6/uL | HEMATOCRIT [1]: 32.32% | HEMOGLOBIN [1]: 12.87 G/DL | LEUKOCYTE COUNT [1]: 11.72 x10E3/uL | LYMPHOCYTE [1]: 94.67% | MEAN CORPUSCULAR HEMOGLOBIN [1]: 25.37 pg | MEAN CORPUSCULAR HEMOGLOBIN CONCENTRATION [1]: 39.85 G/DL | MEAN CORPUSCULAR VOLUME [1]: 63.58 fL | MONOCYTE [1]: 0.17% | NEUTROPHIL [1]: 5% | NUCLEATED RED BLOOD CELLS [1]: 0 /100WBC | PLATELET COUNT [1]: 1084 x10E3/uL | ALANINE AMINOTRANSFERASE [1]: 67.5 u/L | ALBUMIN [1]: 4.02 G/DL | ALKALINE PHOSPHATASE [1]: 374.17 u/L | ASPARTATE AMINOTRANSFERASE [1]: 83.5 u/L | BLOOD UREA NITROGEN [1]: 14.5 mg/dL | CARBON DIOXIDE [1]: 30 mmol/L | CHLORIDE [1]: 100.5 MEQ/L | CHOLESTEROL [1]: 71.33 mg/dL | CREATINE PHOSPHOKINASE [1]: 268.33 u/L | CREATININE [1]: 0.16 mg/dL | GLUCOSE [1]: 170.5 mg/dL | LACTATE DEHYDROGENASE [1]: 81.17 u/L | LIPASE [1]: 16.67 u/L | PHOSPHORUS [1]: 10.07 mg/dL | POTASSIUM [1]: 5.03 MEQ/L | SODIUM [1]: 142.92 MEQ/L | TOTAL BILIRUBIN [1]: 0.17 mg/dL | TOTAL PROTEIN [1]: 5.63 G/DL | URIC ACID [1]: 0.5 mg/dL | ABSOLUTE BASOPHIL [2]: 0 CELLS/uL | ABSOLUTE EOSINOPHIL [2]: 37.5 CELLS/uL | ABSOLUTE LYMPHOCYTE [2]: 8049.5 CELLS/uL | ABSOLUTE MONOCYTE [2]: 82.83 CELLS/uL | ABSOLUTE SEGMENTED NEUTROPHIL [2]: 646.83 CELLS/uL | BASOPHIL [2]: 0% | EOSINOPHIL [2]: 0.5% | ERYTHROCYTE COUNT [2]: 5.36 x10E6/uL | HEMATOCRIT [2]: 33.9% | HEMOGLOBIN [2]: 13.02 G/DL | LEUKOCYTE COUNT [2]: 8.82 x10E3/uL | LYMPHOCYTE [2]: 90.17% | MEAN CORPUSCULAR HEMOGLOBIN [2]: 24.32 pg | MEAN CORPUSCULAR HEMOGLOBIN CONCENTRATION [2]: 38.42 G/DL | MEAN CORPUSCULAR VOLUME [2]: 63.32 fL | MONOCYTE [2]: 1.17% | NEUTROPHIL [2]: 8.17% | NUCLEATED RED BLOOD CELLS [2]: 0.17 /100WBC | PLATELET COUNT [2]: 1231.5 x10E3/uL | ALANINE AMINOTRANSFERASE [2]: 62 u/L | ALBUMIN [2]: 3.97 G/DL | ALKALINE PHOSPHATASE [2]: 303.67 u/L | ASPARTATE AMINOTRANSFERASE [2]: 84.5 u/L | BLOOD UREA NITROGEN [2]: 14.83 mg/dL | CARBON DIOXIDE [2]: 31.83 mmol/L | CHLORIDE [2]: 97 MEQ/L | CHOLESTEROL [2]: 68.83 mg/dL | CREATINE PHOSPHOKINASE [2]: 411.33 u/L | CREATININE [2]: 0.16 mg/dL | GLUCOSE [2]: 170.17 mg/dL | LACTATE DEHYDROGENASE [2]: 88.5 u/L | LIPASE [2]: 9.5 u/L | PHOSPHORUS [2]: 9.98 mg/dL | POTASSIUM [2]: 5.72 MEQ/L | SODIUM [2]: 141.62 MEQ/L | TOTAL BILIRUBIN [2]: 0.1 mg/dL | TOTAL PROTEIN [2]: 5.67 G/DL | URIC ACID [2]: 0.52 mg/dL | ABSOLUTE BASOPHIL [3]: 0 CELLS/uL | ABSOLUTE EOSINOPHIL [3]: 0 CELLS/uL | ABSOLUTE LYMPHOCYTE [3]: 9937.33 CELLS/uL | ABSOLUTE MONOCYTE [3]: 98.67 CELLS/uL | ABSOLUTE SEGMENTED NEUTROPHIL [3]: 897.33 CELLS/uL | BASOPHIL [3]: 0% | EOSINOPHIL [3]: 0% | ERYTHROCYTE COUNT [3]: 4.8 x10E6/uL | HEMATOCRIT [3]: 31.67% | HEMOGLOBIN [3]: 12.47 G/DL | LEUKOCYTE COUNT [3]: 10.93 x10E3/uL | LYMPHOCYTE [3]: 91.33% | MEAN CORPUSCULAR HEMOGLOBIN [3]: 25.97 pg | MEAN CORPUSCULAR HEMOGLOBIN CONCENTRATION [3]: 39.4 G/DL | MEAN CORPUSCULAR VOLUME [3]: 66.03 fL | MONOCYTE [3]: 1% | NEUTROPHIL [3]: 7.67% | NUCLEATED RED BLOOD CELLS [3]: 0 /100WBC | PLATELET COUNT [3]: 1024.33 x10E3/uL | ALANINE AMINOTRANSFERASE [3]: 67 u/L | ALBUMIN [3]: 3.93 G/DL | ALKALINE PHOSPHATASE [3]: 384 u/L | ASPARTATE AMINOTRANSFERASE [3]: 83 u/L | BLOOD UREA NITROGEN [3]: 13 mg/dL | CARBON DIOXIDE [3]: 30.33 mmol/L | CHLORIDE [3]: 100.67 MEQ/L | CHOLESTEROL [3]: 68 mg/dL | CREATINE PHOSPHOKINASE [3]: 246.67 u/L | CREATININE [3]: 0.12 mg/dL | GLUCOSE [3]: 171 mg/dL | LACTATE DEHYDROGENASE [3]: 78.33 u/L | LIPASE [3]: 10 u/L | PHOSPHORUS [3]: 10.13 mg/dL | POTASSIUM [3]: 5.79 MEQ/L | SODIUM [3]: 143.5 MEQ/L | TOTAL BILIRUBIN [3]: 0.17 mg/dL | TOTAL PROTEIN [3]: 5.6 G/DL | URIC ACID [3]: 0.57 mg/dL
